Results on three compounds are retold here after patent US8568805B2, “Cognitive function” (Mars, Inc., priority 2002, dated 2013).

The test system of assay [1] is WB-F344 rat liver epithelial cells. In words: Gap junctional communication assay (Lucifer Yellow dye transfer). It is filed as cell-based. The following applies: for stimulation of GJIC, fold of control: 24 h of exposure. As for the experimental part: WB-F344 rat liver epithelial cells (kindly provided by Dr. Trosko, East Lansing, Mich.) were grown in Dulbecco's modification of Eagle's Medium (DMEM) supplemented with 10% fetal calf serum (FCS), 2 mM L-glutamine and penicillin/streptomycin in 35 mm plastic dishes. Cells were incubated at 37° C. in a humidified atmosphere containing 5% CO2. The confluent cells were incubated with DMEM (without FCS) for 24 h to decrease the basal level of cell-cell communication. (−)-Epicatechin, genistein (Sigma) or TPA were dissolved in DMSO and added to the medium; controls received DMSO only. The final concentration of DMSO in the medium was 0.2%. The epicatechin dimer was prepared as described in Adamson et al. (“HPLC Method for the Quantification of Procyanidins in Cocoa and Chocolate Samples and Correlation to Total Antioxidant Capacity” J. Ag. Food Chem., Vol. 7:10, 4184-4188), the relevant portion of which is hereby incorporated herein by reference.
Cells were treated with (−)-epicatechin (4 to 40 μM) and genistein (40 μM) for 24 and 72 h and GJIC was determined. […] GJIC was measured by microinjection of the fluorescent dye Lucifer Yellow CH (10% in 0.33 M LiCl) into selected cells by means of a micromanipulator and a microinjector system (Eppendorf). One min after injection, the number of fluorescent cells around a single cell which was loaded with the dye were counted. Ten individual cells were injected per dish and means of the number of fluorescent neighboring cells were calculated. Images were taken with a Zeiss axiovert fluorescent microscope coupled to a CCD camera (ORCA II, Hamamatsu).

Another assay relates to connexin43. In words: Immunofluorescence analysis of the subcellular distribution of connexin43. It is filed as cell-based, rat. As to conditions: 90 min. As for the experimental part:
For immunohistochemistry, WB-F344 cells were grown in complete medium with FCS on coverslips in 35 mm plastic dishes until they reached 90% confluence. The cells were incubated for 90 min with 1, 5, or 10 nM TPA, 40 μM (−)-epicatechin or 40 μM genistein or a combination of 40 μM (−)-epicatechin and (1, 5, 10 nM) TPA or 40 μM genistein and (1, 5, 10 nM) TPA; DMSO (0.2%) was used as a control. After treatment, cells were washed with PBS and fixed with methanol for 10 min at −20° C. After further washing with PBS, non-specific binding sites were blocked with 3% normal goat serum (NGS) in PBS containing 0.3% (v/v) Triton-X-100 for 45 min at room temperature. Cells were incubated with a polyclonal anti-Cx 43 antibody (Zymed); diluted 1:1500 in PBS with 1% (v/v) NGS overnight at 4° C. Cells were washed with PBS, and incubated with an Alexa 546-coupled goat anti-rabbit Ig G (H+L) secondary antibody (Molecular Probes; diluted to 1:800 in PBS) for 45 min at 37° C. After washing and embedding, images were taken with a Zeiss axiovert fluorescent microscope coupled to a CCD camera (ORCA II, Hamamatsu).

Assay [2] relates to cultured human umbilical vein endothelial cells. The following applies: cited from earlier work.
[3] abbreviates: Rattus norvegicus, WB-F344, 40 μM, 72 h, read-out: GJIC % of Control.

`CCCCCCCCCCCCCC(=O)O[C@@H]1[C@@H](C)[C@@]2(O)[C@@H](C=C(CO)C[C@]3(O)C(=O)C(C)=C[C@@H]23)[C@H]2C(C)(C)[C@]12OC(C)=O` [TPA]: the “effect on GJIC” value is “No effect” in assay [1] (0.1 nM TPA, 90 min) and “no effect” in assay [1] (TPA, 72 h incubation). Besides, the “GJIC diminished by” value in assay [1] (1 nM TPA, 90 min) is reported as “about 40%”. Also, the “GJIC (% control)” value in assay [1] (TPA 0.1 nM alone, 90 min) is given as 94 ± 14 % control; in assay [1] (TPA 1 nM alone, 90 min), 55 ± 19 % control; in assay [1] (TPA 5 nM alone, 90 min), 0 % control; in assay [1] (TPA 10 nM alone, 90 min), 0 % control. Further, in assay [1] (TPA alone 5 and 10 nM, 90 min), the intercellular communication entry is given as “completely disrupted”. In the assay on connexin43 (TPA 10 nM), the “signal of membrane-associated Cx43” value was “decreased dramatically”.
For the compound `Oc1cc(O)c2c(c1)O[C@H](c1ccc(O)c(O)c1)[C@H](O)C2` [(−)-Epicatechin], in assay [1] (4 μM (lowest concentration)), the “communication, fold above solvent control” value amounted to 1.6 fold. Moreover, the “Number of communicating cells” value in assay [1] (4 μM, 72 h) was 18.1 ± 2.2 cells; in assay [1] (10 μM, 72 h) it was 20.1 ± 6.8 cells; in assay [1] (40 μM, 72 h), 24.2 ± 3.1 cells. For the same compound, the “GJIC (% control)” value stood at 95 ± 14 % control in assay [1] (40 μM plus TPA 0.1 nM, 90 min); 95 ± 19 % control in assay [1] (40 μM plus TPA 1 nM, 90 min); 61 ± 15 % control in assay [1] (40 μM plus TPA 5 nM, 90 min); 50 ± 16 % control in assay [1] (40 μM plus TPA 10 nM, 90 min). In addition, the “stimulation of GJIC, fold of control” value in assay [1] (40 μM) amounted to 1.5 fold. Further, the “increase of GJIC, fold above controls” value in assay [1] (40 μM, 72 h incubation) turned out to be 2.1 fold. Besides, in assay [1] (Rattus norvegicus, WB-F344, 4 μM, 72 h, read-out: GJIC % of Control), the activity at 4 µM was found to be 156 ± 18%. For the same compound, the activity at 10 µM in assay [1] (Rattus norvegicus, WB-F344, 10 μM, 72 h, read-out: GJIC % of Control) stood at 173 ± 56%. Further, the activity at 40 µM in assay [1] (setting [3]) is 209 ± 26%.
`O=c1c(-c2ccc(O)cc2)coc2cc(O)cc(O)c12` [Genistein, genistein]: in assay [1] (40 μM coincubated with TPA 5 and 10 nM, 90 min), the “counteraction of complete loss of GJIC by TPA” value is given as “partially counteracted”. Besides, the “GJIC (% control)” value was 90 ± 23 % control in assay [1] (40 μM plus TPA 1 nM, 90 min); 83 ± 18 % control in assay [1] (40 μM plus TPA 5 nM, 90 min); 72 ± 17 % control in assay [1] (40 μM plus TPA 10 nM, 90 min). For the same compound, the “GJIC when applied together with TPA” value in assay [1] (40 μM with 1 nM TPA, 90 min) was “restored GJIC to basal levels”. Moreover, the “stimulation of GJIC, fold of control” value in assay [1] (40 μM) turned out to be 2.1 fold. Moreover, the “Number of communicating cells” value in assay [1] (40 μM, 72 h) worked out at 35.4 ± 2.4 cells. Moreover, in assay [1] (40 μM, 72 h incubation), the “increase of GJIC, fold above controls” value is listed as 2.9 fold. Further, the activity at 40 µM in assay [1] (setting [3]) came to 293 ± 20%. Also, the “TPA effect on Cx43 distribution” value in the assay on connexin43 (40 μM plus TPA 10 nM) is reported as “attenuated”. Besides, in assay [2], the “levels that affect GJIC in cell culture” value is “above 10 μM”.
